Experimental data from US20230146455A1, “TREATMENT OF INFLAMMATORY DISEASES WITH PEPTIDES AND PHARMACEUTICAL COMPOSITIONS” (Yuyu Pharma, Inc., priority 2020, published 2023).
Values joined by “and” are separate entries in the source; they are usually repeats but may differ in a detail not shown here. Identical values can stand only once. Where a SMILES comes first, the peptide text is derived from it. [ ]: non-standard residue; d: D form. Hyp = O=C(O)[C@@H]1C[C@@H](O)CN1

Test system: IL-1 beta/IL-1F2
Test: Example 8 main study Luminex, LPS hPBMCs: IL-1 beta/IL-1F2
Format: cell-based, human
Protocol: Human PBMCs were pretreated with YY-101, YDE-011, YDE-043 or reference compound; Xiidra® at various concentration (ranging from […] to 500 nM) for 2 h before stimulation. An equal volume of 0.5% DMSO was used as a vehicle control. Then, the cells were treated with LPS at 5 ug/ml, which was selected based on the pilot study. The supernatants from treated cells were harvested at 24 h and placed in a 96 well for Luminex cytokine & chemokine profiling using a Luminex 200 multiplex assay (Luminex; R&D system, USA).
The main study arm with triplicate wells per group in a 24-well plate: • 1. Blank • 2. PBMC: 0.5% DMSO • 3. PBMC+LPS (5 ug/ml) • 4. PBMC+YY-101 500 nM • 5. PBMC+YY-101 50 nM • 6. PBMC+YY-101 5 nM • 7. PBMC+YY-101 0.5 nM • 8. PBMC+LPS (5 ug/ml)+Xiidra® 500 nM • 9. PBMC+LPS (5 ug/ml)+Xiidra® 50 nM • 10. PBMC+LPS (5 ug/ml)+Xiidra® 5 nM • 11. PBMC+LPS (5 ug/ml)+Xiidra® 0.5 nM • 12. PBMC+LPS (5 ug/ml)+Xiidra® 0.05 nM • 13. PBMC+LPS (5 ug/ml)+Xiidra® 0.005 nM • 14. PBMC+LPS (5 ug/ml)+YY-101 500 nM • 15. PBMC+LPS (5 ug/ml)+YY-101 50 nM • 16. PBMC+LPS (5 ug/ml)+YY-101 5 nM • 17. PBMC+LPS (5 ug/ml)+YY-101 0.5 nM • 18. PBMC+LPS (5 ug/ml)+YY-101 0.05 nM • 19. PBMC+LPS (5 ug/ml)+YY-101 0.005 nM • 20. PBMC+LPS (5 ug/ml)+YDE-011 500 nM • 21. PBMC+LPS (5 ug/ml)+YDE-011 50 nM • 22. PBMC+LPS (5 ug/ml)+YDE-011 5 nM • 23. PBMC+LPS (5 ug/ml)+YDE-011 0.5 nM • 24. PBMC+LPS (5 ug/ml)+YDE-011 0.05 nM • 25. PBMC+LPS (5 ug/ml)+YDE-011 0.005 nM • 26. PBMC+LPS (5 ug/ml)+YDE-043 500 nM • 27. PBMC+LPS (5 ug/ml)+YDE-043 50 nM • 28. PBMC+LPS (5 ug/ml)+YDE-043 5 nM • 29. PBMC+LPS (5 ug/ml)+YDE-043 0.5 nM • 30. PBMC+LPS (5 ug/ml)+YDE-043 0.05 nM • 31. PBMC+LPS (5 ug/ml)+YDE-043 0.005 nM
Multiplex assay was used to measure 30 cytokines and chemokines. The 1:200 diluted cell supernatant and serial dilution of the standard were dispensed into a 96 well plate at 50 ul/well. Then, the pre-mixed cocktail of antibody-coated magnetic beads was dispensed at 50 ul/well and incubated at room temperature for 2 h in a horizontal orbital microplate shaker at 800±500 rpm. The beads were washed using a magnetic device to prevent loss. The biotin-antibody was dispensed in 50 ul of each well and incubated at room temperature for 1 h in a shaker at 800±500 rpm. After washing, streptavidin-PE was added at 50 ul/well and incubated at room temperature for 30 min in a shaker under the same conditions. Finally, after washing, wash buffer (100 ul/well) was added to the plate and incubated in a shaker for 2 min. The Luminex™ 200 setting were set according to the manufacturer's protocol. The data was calculated with a standard five-parameter logistic nonlinear regression analysis of the data (xPonent software 4.2, USA). Results were presented as concentration (ng/ml or pg/ml).

[1] = PBMC + LPS(5 ug/ml) + test article 0.005 nM, Mean
[2] = PBMC + LPS(5 ug/ml) + test article 0.005 nM, individual replicates
[3] = PBMC + LPS(5 ug/ml) + test article 0.05 nM, Mean
[4] = PBMC + LPS(5 ug/ml) + test article 0.05 nM, individual replicates
[5] = PBMC + LPS(5 ug/ml) + test article 0.5 nM, Mean
[6] = PBMC + LPS(5 ug/ml) + test article 0.5 nM, individual replicates
[7] = PBMC + LPS(5 ug/ml) + test article 5 nM, Mean
[8] = PBMC + LPS(5 ug/ml) + test article 5 nM, individual replicates
[9] = PBMC + LPS(5 ug/ml) + test article 50 nM, Mean
[10] = PBMC + LPS(5 ug/ml) + test article 50 nM, individual replicates
[11] = PBMC + LPS(5 ug/ml) + test article 500 nM, Mean
[12] = PBMC + LPS(5 ug/ml) + test article 500 nM, individual replicates
[13] = PBMC + test article 0.5 nM, no LPS, Mean
[14] = PBMC + test article 0.5 nM, no LPS, individual replicates (1st, 2nd)
[15] = PBMC + test article 5 nM, no LPS, Mean
[16] = PBMC + test article 5 nM, no LPS, individual replicates (1st, 2nd)
[17] = PBMC + test article 0.05 uM, no LPS, Mean
[18] = PBMC + test article 0.05 uM, no LPS, individual replicates (1st, 2nd)
[19] = PBMC + test article 50 nM, no LPS, Mean
[20] = PBMC + test article 50 nM, no LPS, individual replicates (1st, 2nd)
[21] = PBMC + test article 500 nM, no LPS, Mean
[22] = PBMC + test article 500 nM, no LPS, individual replicates (1st, 2nd)

SMILES: CC(C)C[C@H](NC(=O)[C@H](CCC(N)=O)NC(=O)CNC(=O)[C@@H]1C[C@@H](O)CN1)C(=O)NCC(=O)O [YDE-043] (H-[Hyp]GQLG-OH; N-terminus and C-terminus assumed)
- LPS-induced IL-1b levels (in words) (LPS 5 ug/mL 24 hrs): significantly lowered
- IL-1 beta/IL-1F2 Concentration [1]: 5499.4 pg/mL
- IL-1 beta/IL-1F2 MFI [1]: 100.0
- IL-1 beta/IL-1F2 Concentration [2]: 4547.7 pg/mL and 5320.3 pg/mL and 6630.3 pg/mL
- IL-1 beta/IL-1F2 MFI [2]: 84.0 and 97.0 and 119.0
- IL-1 beta/IL-1F2 Concentration [3]: 4458.6 pg/mL
- IL-1 beta/IL-1F2 MFI [3]: 82.5
- IL-1 beta/IL-1F2 Concentration [4]: 4488.3 pg/mL and 4428.9 pg/mL and 4458.6 pg/mL
- IL-1 beta/IL-1F2 MFI [4]: 83.0 and 82.0 and 82.5
- IL-1 beta/IL-1F2 Concentration [5]: 4725.9 pg/mL
- IL-1 beta/IL-1F2 MFI [5]: 87.0
- IL-1 beta/IL-1F2 Concentration [6]: 4963.6 pg/mL and 4785.3 pg/mL and 4428.9 pg/mL
- IL-1 beta/IL-1F2 MFI [6]: 91.0 and 88.0 and 82.0
- IL-1 beta/IL-1F2 Concentration [7]: 5379.8 pg/mL
- IL-1 beta/IL-1F2 MFI [7]: 98.0
- IL-1 beta/IL-1F2 Concentration [8]: 5379.8 pg/mL and 5558.3 pg/mL and 5201.4 pg/mL
- IL-1 beta/IL-1F2 MFI [8]: 98.0 and 101.0 and 95.0
- IL-1 beta/IL-1F2 Concentration [9]: 5280.8 pg/mL
- IL-1 beta/IL-1F2 MFI [9]: 96.3
- IL-1 beta/IL-1F2 Concentration [10]: 5588.1 pg/mL and 5469.1 pg/mL and 4785.3 pg/mL
- IL-1 beta/IL-1F2 MFI [10]: 101.5 and 99.5 and 88.0
- IL-1 beta/IL-1F2 Concentration [11]: 4508.2 pg/mL
- IL-1 beta/IL-1F2 MFI [11]: 83.3
- IL-1 beta/IL-1F2 Concentration [12]: 4428.9 pg/mL and 4191.5 pg/mL and 4904.1 pg/mL
- IL-1 beta/IL-1F2 MFI [12]: 82.0 and 78.0 and 90.0

SMILES: CC(C)C[C@H](NC(=O)CNC(=O)[C@H](CC(=O)O)NC(=O)[C@H](CCC(N)=O)NC(=O)CNC(=O)[C@@H]1C[C@@H](O)CN1)C(=O)N[C@@H](C)C(=O)NCC(=O)N1CCC[C@H]1C(=O)N[C@@H](CCCCN)C(=O)O [YY-101] (H-[Hyp]GQDGLAGPK-OH; N-terminus and C-terminus assumed)
- IL-1 beta/IL-1F2 Concentration [1]: 5806.3 pg/mL
- IL-1 beta/IL-1F2 MFI [1]: 105.2
- IL-1 beta/IL-1F2 Concentration [2]: 5975.0 pg/mL and 6004.7 pg/mL and 5439.3 pg/mL
- IL-1 beta/IL-1F2 MFI [2]: 108.0 and 108.5 and 99.0
- IL-1 beta/IL-1F2 Concentration [3]: 6004.8 pg/mL
- IL-1 beta/IL-1F2 MFI [3]: 108.5
- IL-1 beta/IL-1F2 Concentration [4]: 5736.8 pg/mL and 6511.1 pg/mL and 5766.6 pg/mL
- IL-1 beta/IL-1F2 MFI [4]: 104.0 and 117.0 and 104.5
- IL-1 beta/IL-1F2 Concentration [5]: 6044.5 pg/mL
- IL-1 beta/IL-1F2 MFI [5]: 109.2
- IL-1 beta/IL-1F2 Concentration [6]: 5736.8 pg/mL and 5975.0 pg/mL and 6421.7 pg/mL
- IL-1 beta/IL-1F2 MFI [6]: 104.0 and 108.0 and 115.5
- IL-1 beta/IL-1F2 Concentration [7]: 5875.9 pg/mL
- IL-1 beta/IL-1F2 MFI [7]: 106.3
- IL-1 beta/IL-1F2 Concentration [8]: 5498.8 pg/mL and 5558.3 pg/mL and 6570.7 pg/mL
- IL-1 beta/IL-1F2 MFI [8]: 100.0 and 101.0 and 118.0
- IL-1 beta/IL-1F2 Concentration [9]: 5608.2 pg/mL
- IL-1 beta/IL-1F2 MFI [9]: 101.8
- IL-1 beta/IL-1F2 Concentration [10]: 5201.4 pg/ml (2×) and 6421.7 pg/ml
- IL-1 beta/IL-1F2 MFI [10]: 95.0 (2×) and 115.5
- IL-1 beta/IL-1F2 Concentration [11]: 5578.2 pg/mL
- IL-1 beta/IL-1F2 MFI [11]: 101.3
- IL-1 beta/IL-1F2 Concentration [12]: 5260.9 pg/mL and 5915.4 pg/mL and 5558.3 pg/mL
- IL-1 beta/IL-1F2 MFI [12]: 96.0 and 107.0 and 101.0
- IL-1 beta/IL-1F2 Concentration [13]: 391.1 pg/mL
- IL-1 beta/IL-1F2 MFI [13]: 13.5
- IL-1 beta/IL-1F2 Concentration [14]: 362.0 pg/mL and 420.1 pg/mL
- IL-1 beta/IL-1F2 MFI [14]: 13.0 and 14.0
- IL-1 beta/IL-1F2 Concentration [15]: 391.1 pg/mL
- IL-1 beta/IL-1F2 MFI [15]: 13.5
- IL-1 beta/IL-1F2 Concentration [16]: 362.0 pg/mL and 420.1 pg/mL
- IL-1 beta/IL-1F2 MFI [16]: 13.0 and 14.0
- IL-1 beta/IL-1F2 Concentration [17]: 420.1 pg/mL
- IL-1 beta/IL-1F2 MFI [17]: 14.0
- IL-1 beta/IL-1F2 Concentration [18]: 420.1 pg/mL
- IL-1 beta/IL-1F2 MFI [18]: 14.0
- IL-1 beta/IL-1F2 Concentration [19]: 362.0 pg/mL
- IL-1 beta/IL-1F2 MFI [19]: 13.0
- IL-1 beta/IL-1F2 Concentration [20]: 362.0 pg/mL
- IL-1 beta/IL-1F2 MFI [20]: 13.0
- IL-1 beta/IL-1F2 Concentration [21]: 420.1 pg/mL
- IL-1 beta/IL-1F2 MFI [21]: 14.0
- IL-1 beta/IL-1F2 Concentration [22]: 420.1 pg/mL
- IL-1 beta/IL-1F2 MFI [22]: 14.0
